From patent US7825217B2, “Polypeptides for bone mineralization” (University of Kansas Medical Center, priority 2006, dated 2010)
Non-standard residues stand in square brackets, D forms with d. Residues, ends and D or L forms follow the SMILES beside them. *: point of attachment. Biotin = O=C1N[C@H]2[C@H](CS[C@H]2CCCCC(=O)*)N1; pS = N[C@@H](COP(=O)(O)O)C(=O)O; Ahx = NCCCCCC(=O)O

Assays:
[1] = test system: Murine bone marrow stromal cell (BMSCs) cultures; assay: Bone marrow stromal cell mineralization assay (alizarin red staining); format: cell-based, mice
Method: The epiphyses of the bones from wild type (“WT”) and HYP mice were removed, and whole marrow was flushed from the diaphyses by centrifugation at 11500 rpm for 30 seconds in standard culture medium, which consisted of α-MEM (Mediatech Inc, Herndon Va., USA) supplemented with 10% FBS (Mediatech Inc, Herndon Va., USA), 10 U/ml penicillin/100 ug/ml streptomycin. The supernatant was removed, and the cell pellet was resuspended in fresh standard medium. The resuspended cells were plated in standard 25 cm^2 flasks and allowed to grow until confluence. The cells were passaged with 0.25% trypsin and 0.02% EDTA (Sigma Aldrich, Saint Louis, Mo., USA). Cells were plated on 24-well plastic culture plates at a concentration of 10×10^4 cells/well. Starting 72 hours after seeding (referred to as Day 0) nonadherent cells were discarded, and the medium was changed to one that supports osteoblast differentiation, that is, standard media plus 10 mM B glycerophosphate (Sigma Aldrich, Saint Louis, Mo., USA) and 50 mg/liter ascorbic acid (Sigma Aldrich, Saint Louis, Mo., USA). […] For quantification of staining, 500 μL 10% (v/v) acetic acid was added to each well, and the plate was incubated at room temperature for 30 min. with shaking. […] 150 μL aliquots of the supernatant were read in triplicate at 450 nm in 96-well format using opaque-walled, transparent-bottomed plates.

[2] = target: T1, PHEX (Homo sapiens, UniProt P78562); assay: Surface plasmon resonance: PHEX analyte binding to immobilized biotinylated ASARM-PO4; conditions: immobilized biotinylated ASARM-PO4, soluble PHEX analyte, FIG. 4(A); read-out: kinetics of binding
T1 sequence (P78562 46-749 limits assumed): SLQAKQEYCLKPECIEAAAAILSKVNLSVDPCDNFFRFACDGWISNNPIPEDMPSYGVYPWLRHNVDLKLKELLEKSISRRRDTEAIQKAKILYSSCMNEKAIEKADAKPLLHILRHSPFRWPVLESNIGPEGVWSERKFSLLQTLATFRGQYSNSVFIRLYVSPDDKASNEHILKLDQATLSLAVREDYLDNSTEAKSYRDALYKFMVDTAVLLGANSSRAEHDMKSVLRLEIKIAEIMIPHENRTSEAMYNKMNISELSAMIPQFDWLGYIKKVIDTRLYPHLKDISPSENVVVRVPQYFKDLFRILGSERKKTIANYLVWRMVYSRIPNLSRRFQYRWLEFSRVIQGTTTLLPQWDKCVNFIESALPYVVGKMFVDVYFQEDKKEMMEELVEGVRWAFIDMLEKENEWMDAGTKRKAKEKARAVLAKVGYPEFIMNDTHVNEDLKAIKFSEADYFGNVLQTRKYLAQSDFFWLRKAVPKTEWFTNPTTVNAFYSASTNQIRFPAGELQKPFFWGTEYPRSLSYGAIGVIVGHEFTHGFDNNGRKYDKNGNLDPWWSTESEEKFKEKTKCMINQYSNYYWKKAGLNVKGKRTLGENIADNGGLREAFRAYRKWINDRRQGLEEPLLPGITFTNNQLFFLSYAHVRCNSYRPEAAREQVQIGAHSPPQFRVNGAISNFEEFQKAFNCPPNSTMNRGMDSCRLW
Method: A Biacore 3000 SPR instrument in conjunction with CM5 research grade chips was used to conduct the surface Plasmon Resonance (SPR) experiments (Biacore, Piscataway, N.J.) as previously described (Rowe et al., Bone 36:33-46 (2005)). The experiments were performed at 25° C. using Biacore buffer (10 mM HEPES pH 7.4, 150 mM NaCl, 0.005% surfactant P20) supplemented with 2 mM ZnCl2 (HBS-P-Zn) or without ZnCl2 (HBS-P) as indicated. Samples were injected at a flow rate of 5 ul/min. The surfaces of research grade CM5 chips were activated by a 6-min. injection of a solution containing 0.2 M N-ethyl-N9-(dimethylaminopropyl) carbodiimide and 0.05 M N-hydroxy-succinimide. Neutravidin (Pierce) was then immobilized on the same chip (ligands) in all four flow-cells using amine coupling chemistry. One neutravidin surface was left blank as a negative control. Biotinylated peptides (including biotinylated ASARM-PO4 peptide) were then added and captured on other individual flow-cells. […] The experiments were repeated on two different chips and immobilized peptides measured as surface plasmon response units as previously described (Rowe et al., Bone 36:33-46 (2005)). The response unit or RU is a measure of surface charge density oscillation and surface […] generation as detected by changes in incident refractive index monitored by the Biacore optical unit. […]

Compound: NH2-LKGDHSGGNGNYTGLDYNIPGYFRSTIPFHGEVDKENVAR-OH (H-LKGDHSGGNGNYTGLDYNIPGYFRSTIPFHGEVDKENVAR-OH; listed as Homo sapiens) [SPR5]
- mineralization (alizarin red) ([1]; BMSC cultures supplemented with 10 μM peptide alone): mineralization occurs with great efficiency

Compound: N=C(N)NCCC[C@H](NC(=O)CCCCCNC(=O)CCCC[C@@H]1SC[C@@H]2NC(=O)N[C@@H]21)C(=O)N[C@@H](CC(=O)O)C(=O)N[C@@H](CC(=O)O)C(=O)N[C@@H](CO)C(=O)N[C@@H](CO)C(=O)N[C@@H](CCC(=O)O)C(=O)N[C@@H](CO)C(=O)N[C@@H](CO)C(=O)N[C@@H](CC(=O)O)C(=O)N[C@@H](CO)C(=O)NCC(=O)N[C@@H](COP(=O)(O)O)C(=O)N[C@@H](CO)C(=O)N[C@@H](COP(=O)(O)O)C(=O)N[C@@H](CCC(=O)O)C(=O)N[C@@H](COP(=O)(O)O)C(=O)N[C@@H](CC(=O)O)C(=O)NCC(=O)N[C@@H](CC(=O)O)C(=O)O [biotinylated-ASARM-PO4] ({Biotin-Ahx}-RDDSSESSDSG[pS]S[pS]E[pS]DGD-OH)
- Kd [2]: 168 nM

Compound: NH2-RDDSSESSDSGS(PO3H2)SS(PO3H2)ES(PO3H2)DGD-OH (H-RDDSSESSDSG[pS]S[pS]E[pS]DGD-OH; listed as Homo sapiens) [ASARM-PO4]
- mineralization (alizarin red) ([1]; BMSC cultures supplemented with 5 μM ASARM-PO4 alone): marked and statistically significant inhibition of mineralization
